Test results taken from US9549943B2, “A3 adenosine receptor ligands for use in treatment of a sexual dysfunction” (CAN-FITE BIOPHARMA LTD., priority 2012, dated 2017).

Experiments:
[1] = test system: patients with moderated to severe Plaque Psoriasis (PS); assay: Phase 2 study of oral CF101 in Plaque Psoriasis; sexual effects; assay type: in vivo, human; details: CF101 1 mg, 2 mg and 4 mg orally twice daily for 12 weeks
Procedure: In a further Phase 2 study, randomized, double-blind, dose-ranging, placebo-controlled study was conducted to determine safety and activity of CF101 administered orally in patients with moderated to severe Plaque Psoriasis (PS). CF101 was administered at 1 mg. 2 mg and 4 mg twice daily for 12 weeks.

[2] = test system: Patients with Moderate-to-Severe Dry Eye Disease; assay: Phase 3 clinical study of oral CF101 in dry eye disease; patient-reported sexual effects; assay type: in vivo, human
Description: The clinical study (the “Study”) was a Phase 3, Randomized, Double-Masked, Placebo-Controlled, Dose-Finding, Parallel-Group Study of the Safety and Efficacy of Daily CF101 Administered Orally in Patients with Moderate-to-Severe Dry Eye Disease, keratoconjunctivitis sicca (KCS). CF101 is an experimental pharmaceutical composition where the active ingredient is IB-MECA. The study had two primary objectives: (i) determine the efficacy of oral administered CF101, as compared to placebo, when administered at doses of either 0.1 mg or 1.0 mg (namely 0.1 and 1 mg of IB-MECA per each administration, respectively) twice daily for 24 weeks in patients with KCS, and (ii) determine the safety of this drug in the patients. Patients were randomized to receive pills of either CF101 0.1 mg, CF101 1.0 mg, or matching placebo, given orally twice daily (BID) for 24 weeks. A Screening Period of up to 4 weeks that includes a 2-week run-in period that preceded the 24-week treatment period, followed by a 2-week follow-up period. The patients that were enrolled in the study had to meet a number of inclusion criteria (namely criteria that had to be matched for a human subject to participate in the study), including (i) being 18 years of age and over, (ii) being diagnosed with moderate-to-severe Aqueous-Deficient Dry Eye (including Sjögren's Syndrome dry eye), as defined by acceptable clinical criteria, and (iii) a variety of other criteria. Patients that met certain exclusion criteria that related to certain ophthalmic conditions and use of other medications. Clinical outcome in improving KCS symptoms was determined through a variety of relevant ophthalmic parameters. In addition, adverse events were recorded for each patient throughout the study and all effects reported by patients were reported. By the time of filing this patent application the study was still ongoing. […] It should be noted that at this time of reporting of these events the study was still masked, namely it is not known whether the patients received CF101 or placebo and if CF101 than the dose of the drug.

[3] = test system: patients with active rheumatoid arthritis (RA); assay: Phase 2 study of oral CF101 added to weekly Methotrexate in rheumatoid arthritis; sexual effects; assay type: in vivo, human; details: CF101 0.1 mg or 1 mg tablets orally every 12 h for 12 weeks, with weekly MTX
Procedure: Phase 2 study in patients with active rheumatoid arthritis (RA) (randomized, double-blind, placebo-controlled), treated in parallel with CF101 administrated orally when added to weekly Methotrexate (MTX). The patients were given CF101 either 0.1 mg or 1 mg tablets or placebo tablets, taken orally every 12 h for 12 weeks. Washout of other disease-modifying antirheumatic drugs (DMARDs), including biological agents was occurring prior to dosing.

Male C57BL/6j mice = assay: Concanavalin A mouse model treated with allosteric enhancer; erection observed; assay type: in vivo; details: 100 μg/kg orally 8 h after Con.A and 2 h before termination, no signs in control-untreated group
Procedure: Male C57BL/6j mice, 8 weeks of age, were injected intravenously (tail vein) with concanavalin A (Con.A) (20 mg/kg). twenty four hours after Con.A injection, levels of alanine aminotransferase (ALT) and aspirate aminotransferase (AST) were measured in the serum.
The allosteric compound, Luf6000 (also known as N-(3,4-dichloro-phenyl)-2-cyclohexyl-1H-imidazo[4,5-c]quinolin-4-amine), was orally administered at a dose of 100 μg/kg 8 h after Con.A administration and 2 h before termination.

CNC(=O)[C@H]1O[C@@H](n2cnc3c(NCc4cccc(I)c4)ncnc32)[C@H](O)[C@@H]1O [CF101, N^6-(3-iodobenzyl)-adenosine-5′-N-methyluronamide]
erection or increase in sexual desire in patients [1]: some of the patients experienced erection or increase in sexual desire
erection or increase in sexual desire in patients ([2]; oral CF101, patients with moderate to severe dry eye disease (summary statement)): some of the patients experienced erection or increase in sexual desire
period during which erection occurred every day after each intake ([2]; patient): about 10 days
sexual potency reported by patient ([2]; patient (code 104507), oral, twice daily, 0.1 mg or 1 mg, study still masked): increase of sexual potency
time after intake to unprovoked erection ([2]; patient, after each CF101 intake): around 30 minutes
erection reported by patient after intake ([2]; patient, oral, twice daily, 0.1 mg or 1 mg, study still masked): unprovoked erection
erection or increase in sexual desire in patients [3]: some of the patients experienced erection or increase in sexual desire

Clc1ccc(Nc2nc3ccccc3c3[nH]c(C4CCCCC4)nc23)cc1Cl [Luf6000, N-(3,4-dichloro-phenyl)-2-cyclohexyl-1H-imidazo[4,5-c]quinolin-4-amine]
erection in treated mice (Male C57BL/6j mice): erection was noticed
erection in treated mice (Male C57BL/6j mice; listed as LUF6000): exhibited erection
